# Reference: US20110059226A1, “METHOD FOR LOADING A MOLECULE INTO A POROUS SUBSTRATE” (priority 2009, published 2011)
# Key:
# Format in all cases: physicochemical
# [1] = Solubility limit of Ibuprofen in CO2 (I) and CO2 (I) with 5 mol % cosolvent, by visual inspection; conditions: room temperature, 55±2 bar, 9 hours
# Experimental: The solubility of Ibuprofen in CO2 (I) and CO2 (I) with 5 mol % of cosolvent was determined by visual inspection of sample mixtures of the solvent(s) and Ibuprofen at room temperature and 55±2 bar, and the solubility limit was considered to be reached when particles of Ibuprofen were visible.
# [2] = Loading of Ibuprofen into mesoporous silica (MCM-41) from liquid carbon dioxide, adsorbed amount measured by TGA; conditions: for Maximum loaded amount of Ibuprofen in mesoporous silica: pure CO2 (I), 20° C., 55±2 bar
# Description: The mesoporous particles were placed in a bag (fabric of polypropene, PP 3333, permeability 105 DIN, Derma AB, Sweden), which was permeable for the solvent and dissolved Ibuprofen molecules but kept the mesoporous particles in one place in the reactor (see below). The amount of mesoporous particles was 0.1 g in all experiments, while the amount of Ibuprofen was varied for different loading experiments. The particles in the bag and Ibuprofen crystals (thoroughly ground in a mortar before use) were placed in a glass beaker (400 ml), which was placed in an in-house built stainless steel reactor (1.7 L) with two sapphire glass windows. The reactor was first pressurized with carbon dioxide and thereafter 200 ml CO2 (I) or CO2 (I)+5 mol-% cosolvent was introduced into the glass beaker at 20° C. and 55±2 bar. […] After the loading period (15 minutes to 18 hours), the reactor was depressurized and the bag containing the mesoporous particles with Ibuprofen was retrieved. The samples were characterized with TGA using a TGA 7 instrument (Perkin Elmer Inc., USA). The temperature program used consisted of an initial part with a heating rate of 20° C./min from 20° C. to 95° C., followed by an isothermal pause for 60 minutes at 95° C., and finally heating from 95° C. up to 800° C. at a heating rate of 2° C./min. All TGA measurements were performed under 20 ml/min flow of N2 gas. […] The loading time and concentration of Ibuprofen in the CO2 (I) was varied in the experiments and each experiment is represented by one point in the graph in FIG. 1.
# [3] = Release of Ibuprofen from mesoporous silica into water; conditions: within one minute of the mesoporous silica being added to water
# Description: Fifty percent of the Ibuprofen is released into water within one minute of the mesoporous silica being added to water. This is desirable as a quicker release for an analgesic drug will result in faster relief for the individual taking the analgesic drug.
compound,measurement,setting,value
CC(C)Cc1ccc(C(C)C(=O)O)cc1 (stereo not shown) [Ibuprofen],Solubility limit,[1]; Solvent CO2 (I) + acetone (5 mol %),1.5-2.0 wt-%
same,Solubility limit,[1]; Solvent CO2 (I) + cyclohexane (5 mol %),1.0-1.5 wt-%
same,Solubility limit,[1]; Solvent CO2 (I) + methanol (5 mol %),>2.0 wt-%
same,Solubility limit,[1]; Solvent CO2 (I),0.20-0.25 wt-%
same,Maximum adsorbed amount of Ibuprofen in the mesoporous particles,[2]; 0.34 wt-% Ibuprofen in CO2 (I) + acetone (5 mol-%),approximately 50 mg Ibuprofen/g SiO2
same,Maximum adsorbed amount of Ibuprofen in the mesoporous particles,[2]; 0.34 wt-% Ibuprofen in CO2 (I) + cyclohexane (5 mol-%),approximately 200 mg Ibuprofen/g SiO2
same,Maximum adsorbed amount of Ibuprofen in the mesoporous particles,[2]; 0.34 wt-% Ibuprofen in CO2 (I) + methanol (5 mol-%),approximately 50 mg Ibuprofen/g SiO2
same,Maximum loaded amount of Ibuprofen in mesoporous silica,[2]; Ibuprofen concentration below the solubility limit (0.04 wt-%),much lower loading
same,Maximum loaded amount of Ibuprofen in mesoporous silica,"[2]; solution saturated with Ibuprofen (0.34 or 0.90 wt-% nominal), 7 to 12 hours",~300 mg Ibuprofen/g SiO2
same,Ibuprofen released into water from mesoporous silica,[3],Fifty
